Where only a bound is given, the exact number is not on record here.

The term melting point denotes the temperature of the solid-liquid transition. The compound `O=C1c2ccccc2N(N2CCCCC2)C2=NCCN12` yielded a melting point of 229 to 231 °C.
On to `CC(=O)OCC1OC(n2c3ncccc3c3c4c(n5cncc5c32)C(=O)N(C)C4=O)C(OC(C)=O)C(OC(C)=O)C1OC(C)=O` (centres undefined), for which the melting point came to 204 °C.
As for `CC(C)(CN)c1ccc2nc(-c3ccccc3)[nH]c2c1`, the figure is 185 to 187 °C; as for `O=C(/C=C/c1ccc(C(F)(F)F)cc1-c1cccnc1)Nc1ccc2[nH]ccc2c1`, 196 to 197 °C; as for `CSC(=S)N1CC(C)(C)CSC1=Nc1ccccc1C(C)C`, 77 to 79 °C.
The compound `CCCc1c(COc2ccc(C(=O)c3cccc(C#N)c3)cc2)ccc(C(C)=O)c1O` returned a melting point of 146 to 148 °C.
For `FC(F)Oc1ccc(-c2nc3ccc(OC(F)(F)F)cc3[nH]2)cc1` the value was 185 to 187 °C; for `Cc1sc(C=O)cc1NC(=O)OCc1ccccc1`, 120 °C.
The compound `Nc1cccc(Oc2ccc3c(c2)OCC(=O)N3)c1` displayed a melting point of 209 to 210 °C.
As to `CC(Cc1ccc(C(C)(C)C)cc1)C[N+]1([O-])CC(C)OC(C)C1` (centres undefined), the melting point was in the range of 115 to 118 °C.
`Cc1[nH]nc(C(F)(F)F)c1-c1cncc(OC2SCC(O)C(O)C2O)c1` (centres undefined) gave a melting point of 234 °C.
As for `COc1cccc([C@H]2O[C@H](CC(=O)Nc3cc(CCC(=O)O)ccc3OCCCc3ccccc3)C(=O)N(CC(C)(C)CO)c3ccc(Cl)cc32)c1OC`, the figure is 162 to 165 °C; as for `COC(=O)c1ccc2c(c1)Sc1cc(F)ccc1C=C2`, 132 to 135 °C.
The compound `CC(=O)CCN1CCC(=C2c3ccccc3CCc3ccccc32)CC1` gave a melting point of 113 to 114 °C.
Regarding `CCOC(CNC(=O)N(N=Cc1ccccc1)c1cc(Cl)c(Cc2ccc(Cl)cc2)c(Cl)c1)OCC`, the melting point lay in the range of 138 to 139 °C.
Consider `CC(=O)SCC(Cc1ccccc1)C(=O)Nc1cc(C(=O)O)cc(C(C)C)c1` (centres undefined), for which the melting point lay within 205 to 206 °C.
As for `CCOC(=O)C=Cc1cc2cc(OC)ccc2nc1Cl`, the melting point lay in the range of 113 to 114 °C.
Take `CCC(C)N(C)C(=O)c1cc2ccccc2c(-c2ccccc2F)n1` (centres undefined): the melting point is 85 °C.
On to `Cn1cccc1C(=O)Nc1nc(-c2cccc(C#N)c2)c(-n2cncn2)s1`, for which the melting point fell in the range of 245 to 247 °C.
In turn, `Cn1c(C(=O)NN2CCCCC2)cc(-c2ccc(Cl)cc2Cl)c1-c1ccc(Cl)cc1` gave a melting point of 218 °C.
As for `O=C(O)CCNC(=O)CCC(=O)Nc1cccc2ccccc12`, the melting point is 180 to 182 °C.
In turn, `Clc1cccc2c1CN(Cc1c[nH]c3ccccc13)C2` returned a melting point of 163 to 165 °C.
Turning to `COc1cc2[nH]c(=O)c3c(c2cc1OC)CCN(C(=O)c1ccccc1)C3`, the melting point lay in the range of 290 to 297 °C.
As for `O=C1NC(=O)c2c1c(-c1ccccc1Cl)cc1c2c(Br)cn1CCCN1CCCC1`, the figure is 158 to 161 °C.
The compound `CCOCC1=C(C(=O)OCC)C(c2ccccc2C(F)(F)F)C(C(=O)OCC)=C(C)N1` (centres undefined) displayed a melting point of 112 °C.
The compound `CCOc1cc2cc(CO)cc(-c3ccnc(NN)c3)c2cc1OCC` showed a melting point of 147 to 149 °C.
As to `O=C1CCc2ncc3c(c21)CCO3`, the melting point fell in the range of 148 to 149 °C.
Take `Cc1ccccc1-c1cnc2c(C(F)(F)F)cccc2c1-c1cccc(N)c1`: the melting point lay in the range of 148 to 151 °C.
For the compound `CCOC(=O)c1cn(-c2nccs2)c2nc(Cl)cc(C(F)(F)F)c2c1=O`, the melting point lay in the range of 184 to 185 °C.
The compound `O=C1c2c(Cl)cccc2-n2cnc(-c3noc(CN(Cc4ccccc4)Cc4ccccc4)n3)c2[C@@H]2CCCN12` returned a melting point of 107 to 109 °C.
`CC(=O)NC12CC3CC(C)(CC(C)(C3)C1)C2` showed a melting point of 113 to 114 °C.
For `COc1ccc(-c2cnn3c(N)c(-c4ccc(F)cc4)c(C)nc23)cc1` the value was 243 to 244 °C.
As for `CCS(=O)(=O)Nc1cc(Cc2c[nH]cn2)ccc1C`, the figure is 140 to 152 °C; as for `CN(C)c1ccc(CNc2ccc(Cl)c(Cl)c2)cc1`, 117 °C; as for `CC(C)(CCCCCCC(C)(C)CCC(=O)O)CCC(=O)O`, 88 to 89 °C.
In turn, `COc1cccc(CCc2c(CCNC(=O)CCCCC(=O)NCCc3ccc(N)cc3)ccc(OC)c2OC)c1` yielded a melting point of 163 to 165 °C.
As for `C1CNCCNCCNCNCCNC1`, the figure is 49 to 51 °C; as for `CC(=O)Nc1ccc(S(=O)(=O)Nc2nnc(CC(=O)O)s2)cc1`, 206 to 207 °C.
Regarding `N#Cc1ccc(C(=O)Cc2ccc(C#N)cc2[N+](=O)[O-])cc1`, the melting point lay in the range of 188 to 190 °C.
For `CC(C)Oc1ccc(-c2nc(=O)c3ccccc3s2)cn1` the value was 110 °C.
As for `O=c1c2cnc3ccc(F)cc3c2on1-c1ccccc1`, the figure is 174 °C; as for `CCCN1CC(c2ccc(S(C)(=O)=O)cc2)=C(c2ccc(Cl)cc2)C1=O`, 146 to 148 °C; as for `NCCCNc1nccc(NC(N)=NCC(F)(F)F)n1`, 159 °C.
`O=[N+]([O-])c1ccc(CNc2ncnc3c2ncn3C2OC(CO)C(O)C2O)cc1` (centres undefined) gave a melting point of 168 to 169 °C.
For `CC(=O)c1ccc(S(=O)(=O)Nc2ccc(C(F)(F)F)cn2)cc1` the value was 179 to 180 °C; for `CCOC(=O)c1cn(C2CC2)c2c(CO)c(N3CCN(C)CC3)c(F)cc2c1=O`, 216 to 218 °C; for `N#Cc1nn(-c2c(Cl)cc(C(F)(F)F)cc2Cl)cc1C1(C(F)(F)F)CC1`, 141 °C.
The compound `Cn1ncnc1COc1nn2c(-c3ccccc3F)nncc2c1-c1cccc(C#N)c1` gave a melting point of 194 to 196 °C.
Take `COc1ccc(C[C@H]2Cc3cc(C)cnc3[C@H](C)C2)cc1`: the melting point was in the range of 218 to 222 °C.
For `Cc1cc(C2=NOC(c3cc(Cl)cc(Cl)c3)(C(F)(F)F)C2)ccc1C(=O)NCc1ccccn1` (centres undefined) the value was 131 to 136 °C; for `Cc1ccc2c(-c3nnn[nH]3)cn(Cc3ccc4oc(-c5nc(C(C)(C)C)cs5)cc4c3)c2c1`, 240 to 245 °C; for `CCN1c2ncccc2C(=O)Nc2c(C(F)(F)F)cc(C)nc21`, 150 to 151 °C.
As for `CC(=O)NCCCc1c(N)ccc2c1C(=O)c1ccccc1C2=O`, the figure is 202 °C; as for `CCOC(=O)c1cc(-c2ccc(F)cc2)sc1N`, 98 to 99 °C; as for `CC(=O)NCCNc1nc(-c2ccc(=O)n(C(C)C)n2)c(-c2ccccc2)nc1N`, 147 to 149 °C.
`CC(CCCc1ccc(CCCCNC(=N)NC(=O)c2nc(Cl)c(N)nc2N)cc1)NCC(O)c1cccc(O)c1` (centres undefined) returned a melting point of 82 to 86 °C.
As for `O=C(C(=O)N1CCC(Oc2ccc(F)cc2)CC1)c1c[nH]c2ccccc12`, the melting point lay in the range of 205 to 207 °C.
`CN(CCc1ccccc1)C(=O)Cn1cc(C=CC(=O)N2CCCC2)c2cc(OCc3ccccc3)ccc21` yielded a melting point of 185 to 187 °C.
On to `N#Cc1ccc2nc(-c3ccc(Br)cc3)cn2c1`, for which the melting point lay in the range of 262 to 264 °C.
As to `O=C1NCCSc2ccsc21`, the melting point lay in the range of 186 to 188 °C.
Compound `CCOC(=O)C1=C(C)Nc2ccccc2N(C)C1c1cccc([N+](=O)[O-])c1` (centres undefined) displayed a melting point of 113 to 116 °C.
As to `NS(=O)(=O)NC(=O)NCCCCC1CCSS1` (centres undefined), the melting point was 123 to 125 °C.
`COc1ccc(Cn2ncc3c4c(cnc32)CN(S(=O)(=O)c2ccccc2)CC4)cc1` displayed a melting point of 136 to 138 °C.
Take `N#CC(CC(=O)c1ccc(Cl)cc1)C(N)=O` (centres undefined): the melting point lay in the range of 160 to 161 °C.
As for `c1ccc2c(c1)NC1CCCc3onc-2c31` (centres undefined), the figure is 152 to 154 °C; as for `CCNc1cc(Oc2ccc(NC(=O)NC3CC3c3ccccc3)cc2)ncn1` (centres undefined), 205 to 206 °C.
As for `CC1(C)C(=O)Nc2ccccc2NC1=O`, the figure is above 270 °C; as for `CC(N1C(=O)C(=O)N(c2ccc(F)cc2F)C1=S)C(C)(C)C` (centres undefined), 155 to 156 °C; as for `CN(C)c1ccc(C2(Oc3ccccc3)OC(=O)c3ccc(N(C)C)cc32)cc1` (centres undefined), 158 to 159 °C.
As for `Cc1cc2c(O)cccc2[nH]1`, the melting point was in the range of 168 to 170 °C.
Consider `Nc1ncnc2c1c(Br)cn2COCCO`, for which the melting point was in the range of 163 to 164 °C.
On to `O=c1cc(-c2ccccc2)c2cc(C(c3ccccc3)n3ccnc3)ccc2[nH]1` (centres undefined), for which the melting point turned out to be 253 °C.
`O=C(O)COc1cc2c(c(Cl)c1Cl)C(=NO)C1(CCCC1)C2` had a melting point of 228 °C.
`CCc1cc2[nH]c(=O)cc(O)c2c(CC)n1`: the melting point was 322 to 325 °C.
As for `O=C(CSc1cccs1)C12CC3CC(CC(C3)C1)C2`, the figure is 69 to 72 °C.
As for `CC(C)(C)OC(=O)c1ccc(N2CC(CO)OC2=O)cc1F` (centres undefined), the figure is 148 to 149 °C; as for `Cc1cnc(NCCc2ccccn2)c(=O)n1NC(=O)CCc1cccc(Cl)c1`, 201 to 207 °C.
`CCn1cc(C(=O)O)c(=O)cc1-c1ccccc1` gave a melting point of 166 to 167 °C.
Regarding `CC(Oc1ncn(-c2cccc(C(F)(F)F)c2)n1)C(N)=O` (centres undefined), the melting point lay in the range of 147 to 149 °C.
Compound `N#Cc1cc(C(O)CN(Cc2ccccc2)Cc2ccccc2)cc2c1NCC2` (centres undefined) displayed a melting point of 139 to 140 °C.
Compound `Oc1ccc2c(c1)C13CCCCC1(Cc1ccccc1)C(C2)N(CC1CC1)CC3` (centres undefined) had a melting point above 280 °C.
`CCOc1cc2nc(CN(C)C)nc(Nc3cccc(-c4csc(C)n4)c3)c2cc1OCC` had a melting point of 170 to 172 °C.
Take `FC(F)(F)c1cc(Cl)c(-n2cc(C3CC3(Cl)Cl)nn2)c(Cl)c1` (centres undefined): the melting point lay within 134 to 136 °C.
For `CCOC(=O)c1cc2c(cn1)[nH]c1ccc(N)cc12` the value was 226 to 228 °C; for `COc1ccc2ccccc2c1CCNC(C)=O`, 139 °C; for `CCCCCCCCCCCCSc1nnn(C(C(=O)Nc2c(OC)cc(OC)cc2OC)c2ccccc2)n1` (centres undefined), 141 to 143 °C.
As for `CC1=C(/C=C/C(=O)N2CCN(C(N)=O)CC2)C(C)(C)CCC1`, the melting point came to 144 °C.
Turning to `CC(=O)NS(=O)(=O)c1ccc(C2=C(c3ccc(F)c(Cl)c3)CCC2)cc1`, the melting point is 127 to 129 °C.
As for `O=c1c(CCCc2ccncc2)cc2cccnc2n1-c1cccc2nsnc12`, the figure is 191 to 192 °C.

The values above are taken from a melting point compilation (Tetko et al.; mined from patent text by program, amines drawn as free bases though some values may be those of a salt).
